# Laboratory results as given in EP0100051A1, “New derivatives of 1-alkylamine-(4(p-alkyloxy-benzamide)phenoxy)-2-propanol, having beta-sympatholytic activity, their salts, and production processes thereof” (A. Menarini S.a.S., priority 1982, dated 1984).
# Experiments:
# [1] = system: β -chronotropic effects (cardiac frequency increase), β .-inotropic effects (systolic ejection velocity increase), and ,β2 effects (diastolic pressure lowering); assay: antagonism of the effects of isoprenaline in the anaesthetized and reserpenized rat after oral administration (in vivo); settings: for inherent sympathicomimetic activity: cardiac frequency in the reserpenized animal at rest; for cardioselectivity: from the in vivo and in vitro results, β1 versus β2 effects of isoprenaline; for power gap between vivo and vitro: in vivo activity relative to in vitro activity
# [2] = system: β chronotropic effects (cavy right atrium), β1 inotropic effects (cavy ventricle) and 2 effects (cavy trachea) of the isoprenaline; assay: antagonism of the effects of isoprenaline on isolated tissues (in vitro); settings: compared with the compounds of the invention
# Text: The beta-sympatholytic activity of the compounds under examination has been tested in vivo as antagonist to the β -chronotropic effects (cardiac frequency increase), β .-inotropic effects (systolic ejection velocity increase), and ,β2 effects (diastolic pressure lowering) of the isoprenaline upon the anaesthetized and reserpenized rat, after oral administration, and in vitro as antagonist to the β chronotropic effects (cavy right atrium), β1 inotropic effects (cavy ventricle) and 2 effects (cavy trachea) of the isoprenaline.
Structure (SMILES),inherent sympathicomimetic activity [1],cardioselectivity [1],power gap between vivo and vitro [1],beta-sympatholytic activity in vitro [2]
CC(C)NCC(O)COc1ccc(NC(=O)c2ccc(Cl)cc2)cc1 (centres unmarked) [1 [4(-p--chlorobenzamide)phenoxy] -3-isopropylamine-2-propanol],also present,also present,lack of a significant power gap between vivo and vitro,
CC(C)NCC(O)COc1ccc(NC(=O)c2ccccc2)cc1 (centres unmarked) [1-(4-benzamidephenoxy)-3-isopropylamine-2-propanol],also present,also present,lack of a significant power gap between vivo and vitro,
CC(=O)Nc1ccc(OCC(O)CNC(C)C)cc1 (centres unmarked) [practolol],also present,also present,lack of a significant power gap between vivo and vitro,
CC(C)NCC(O)COc1cccc2ccccc12 (centres unmarked) [propranolol],,,relevant decrease of the in vivo activity,more active in vitro
